In patent publication US7420060B2, “Benzopyran derivatives substituted with a thioxobenzoxazole derivative, pharmaceutically acceptable salts thereof, their preparations and pharmaceutical compositions containing them” (Schaeffler KG, priority 2003, dated 2008):

Tests used:
[1] = test system: ischemic heart isolated from white rat; test: Cardioprotective effect on isolated ischemic rat heart (Langendorff, 30 min global ischemia / 30 min reperfusion); settings: 10 μM; for LDH (concentration of lactate dehydogenase): after 30 min reperfusion; for EDP (left ventricular end diastolic pressure): after reperfusion, baseline set at 5 mmHg; for LVDP × HR (left ventricular developed pressure × heart rate): reperfusion DP as % of pre-treatment DP, 30 min after reperfusion
Experimental: 100 mg/kg of sodium pentobarbital was injected in abdominal cavity of white male rats (300˜450 g, obtained form the experimental animal team of the Korea Research Institute of Chemical Technology) to anesthetize them. Then, an intravenous injection of 1000 U/kg of heparin was performed before taking out heart. Particularly, cannula(PE 240) was inserted in the trachea, and artificial respiration was tried upon the rat by using a rodent ventilator. Under that condition, aortic cannula was inserted in the aorta and heart was taken out under retrograde perfusion. The extracted heart was hung on Langendorff apparatus quickly and unnecessary tissues on heart were removed. Perfusion was induced under static pressure (85 mmHg) with 37° C. modified Krebs-Henseleit bicarbonate buffer (composition <mM/L>: 116 NaCl, 4.7 KCl, 1.1 MgSO4, 1.17 KH2PO4, 24.9 NaHCO3, 2.52 CaCl2, 8.32 Glucose, 2.0 Pyruvate) saturated with 95% O2/5% CO2. A metal cannula, to which a latex balloon filled with an ethanol-distilled water mixture (1:1 vol/vol) was linked, was inserted in left ventricle through pulmonary vein. Then, left ventricular pressure transmitted through the balloon was transduced by using pressure transducer, and amplified by using Plugsys bridge amplifier isovolumetrically. Then, the pressure was recorded in a recorder (Linearcorder mark 8 WR 3500). Thereafter, heart was stabilized for 15 minutes. Then, left ventricular end diastolic pressure (LVEDP) was given by 5 mmHg and such volume of the balloon was kept all through the experiments.
Baseline cardiac contractile function, heart rate (HR), and coronary flow (CF) were measured. Cardiac contractile function was calculated by […], yielding LVDP (left ventricular developed pressure). Double product RPP (rate-pressure product)(DP), another important parameter for indirectly assessing cardiac performance in Langendorff heart, whose cardiac output could not be measured ordinarily, was calculated by multiplying HR by LVDP. Throughout the experiment, total coronary blood flow was measured by the use of coronary flow probe (diameter: 1.0 mm) installed in aortic cannula with electromagnetic flowmeter. Temperature of heart was steadily maintained by immersing the heart at 37° C. in physiological saline solution to which 95% O2/5% CO2 was constantly supplied. After stabilization for 15 min, the hearts were pre-treated for 10 min with vehicle (0.04% DMSO) only or a compound of the present invention or the control material in the vehicle. Thereafter, cardiac contractile function, HR and CF were repeatedly measured. Global ischemia was induced by completely shutting off the perfusate for 30 min. Severity of ischemia was determined as the time to contracture (TTC, min) during global ischemia in which the first 5 mmHg increase in EDP was observed. Then, the hearts were reperfused and, 30 min later, contractile functions (LVDP, HR and CF) were repeatedly measured. After reperfusion was accomplished for 30 min, LDH (lactate dehydrogenase) was measured with a kit as a sensitive index for loss of cell viability.

[2] = test system: ischemic myocardial injury models prepared from white rats; test: Antiischemic activity in the anesthetized rat ischemic myocardial injury model (coronary occlusion 45 min / reperfusion 90 min); format: in vivo; settings: 0.3 mg/kg, intravenous (femoral vein), 30 min before occlusion
Experimental: 75 mg/kg of sodium pentobarbital was injected in abdominal cavity of white male rats (350-450 g, Laboratory Animal Division, Korea Research Institute of Chemical Technology) to anesthetize them. After performing tracheotomy, artificial respiration was induced by 10 ml/kg of stroke volume and 60/min. of heart rate. Cannula was inserted in each of vena fermoralis and aorta fermoralis, through which medicines were administered and blood pressure was measured. In the meantime, since body temperature in a ischemic myocardial injury model was very important factor, directly influencing a result, the temperature of a rat was always kept at 37° C. by using a probe for measuring body temperature inserted in rectum and homeothermic blanket control unit. Mean arterial blood pressure and heart rate (HR) of the rat were measured all through the experiments. Statham P23XL pressure transducer (Grass Ins., MA., USA) was used for measuring blood pressure and ECG/RATE Coupler (Hugo Sachs Electronic, Germany) was used for measuring HR. In addition, all the changes were recorded successively by graphtec linearcorder chart recorder (Graphtec Linearcorder WR 3310, Hugo Sachs Electronic).
According to the method of Selye H, left coronary aorta was occluded as follows. Left thoracotomy was induced. That is, the chest of a rat was a little opened. The right chest of the anesthetized rat was pressurized by the middle finger of left hand, so that the heart was pushed out. The heart was fixed gently by the thumb and the index finger of the left hand. A stitch was carefully put on a part including left anterior descending coronary artery by a suture needle with operating thread (5-0 silk ligature), and the heart was quickly positioned again in thoracic cavity. Then, both ends of operating thread were exposed outside. Both ends of operating thread were passed through PE tube (PE100, 2.5 cm) and left for 20 minutes for stabilization. A vehicle or a medicine was administered through the cannula inserted in femoral vein, which was left for 30 minutes in order for the medicine to work thoroughly. BMS-180448 was used for a control group and the dosage of each test medicine and a control medicine was 0.3 mg/kg each. […]
The coronary artery was reoccluded according to the above method and 2 ml of 1% Evans blue solution was administered by intravenous injection. […] The surface of each slice was inputted in a computer by using Hi-scope, a compact micro vision system, and Image pro plus program, from which both normal blood flow tissue area stained by blue and non-stained area on each slice were measured. The ratio of non-stained area to the gross area of each slice was calculated, by which the weight of each slice was multiplied to calculate AAR (area at risk) of each slice. […]

[3] = during 30 min global ischemia, first 5 mmHg increase in EDP

Structure (SMILES)	LDH (concentration of lactate dehydogenase) [1] [unit/g]	EDP (left ventricular end diastolic pressure) [1] [mmHg]	TTC (time to induce contraction / time to contracture) [1, 3] [min]	LVDP × HR (left ventricular developed pressure × heart rate) [1] [%]	IZ/AAR(%) myocardial infarction size to area at risk [2] [%]	TTC (time to induce contraction / time to contracture) [1] [min]
CC1(C)Oc2ccc(C#N)cc2[C@@H](NC(=NC#N)Nc2ccc(Cl)cc2)[C@@H]1O [BMS-180448, reference compound]	17.2	16.5	27.8	67.6	39.1	
COC(OC)[C@]1(C)Oc2ccc([N+](=O)[O-])cc2[C@H](n2c(=S)oc3ccccc32)[C@H]1O [Example 1, (2R,3R,4S)-6-nitro-3,4-dihydro-3-hydroxy-2-dimethoxymethyl-2-methyl-4-(2-thioxobenzoxazol-3-yl)-2H-1-benzopyran]	4.6	19.8	25.3	53.8	39.6	
COC(OC)[C@]1(C)Oc2ccc([N+](=O)[O-])cc2[C@@H](n2c(=S)oc3ccccc32)[C@@H]1O [Example 2, (2R,3S,4R)-6-nitro-3,4-dihydro-3-hydroxy-2-dimethoxymethyl-2-methyl-4-(2-thioxobenzoxazol-3-yl)-2H-1-benzopyran]	17.9	29.3	24.4	57.6		
COC(OC)[C@@]1(C)Oc2ccc([N+](=O)[O-])cc2[C@H](n2c(=S)oc3ccccc32)[C@H]1O [Example 3, (2S,3R,4S)-6-nitro-3,4-dihydro-3-hydroxy-2-dimethoxymethyl-2-methyl-4-(2-thioxobenzoxazol-3-yl)-2H-1-benzopyran]	12.6	15.3	26.6	66.8		
COC(OC)[C@]1(C)Oc2ccc([N+](=O)[O-])cc2[C@H](n2c(=S)oc3cc(C)ccc32)[C@H]1O [Example 5, (2R,3R,4S)-6-nitro-3,4-dihydro-3-hydroxy-2-dimethoxymethyl-2-methyl-4-(6-methyl-2-thioxobenzoxazol-3-yl)-2H-1-benzopyran]	20.2	21.0	29.0	47.4		
COC(OC)[C@]1(C)Oc2ccc([N+](=O)[O-])cc2[C@H](n2c(=S)oc3cccc(C)c32)[C@H]1O [Example 6, (2R,3R,4S)-6-nitro-3,4-dihydro-3-hydroxy-2-dimethoxymethyl-2-methyl-4-(4-methyl-2-thioxobenzoxazol-3-yl)-2H-1-benzopyran]	9.6	6.3	26.7	74.3	42.5	
COC(OC)[C@]1(C)Oc2ccc([N+](=O)[O-])cc2[C@H](n2c(=S)oc3ccc(Cl)cc32)[C@H]1O [Example 7, (2R,3R,4S)-6-nitro-3,4-dihydro-3-hydroxy-2-dimethoxymethyl-2-methyl-4-(5-chloro-2-thioxobenzoxazol-3-yl)-2H-1-benzopyran]	21.1	23.3	25.6	59.4		
COC(OC)[C@]1(C)Oc2ccc([N+](=O)[O-])cc2[C@H](n2c(=S)oc3cc([N+](=O)[O-])ccc32)[C@H]1O [Example 9, (2R,3R,4S)-6-nitro-3,4-dihydro-3-hydroxy-2-dimethoxymethyl-2-methyl-4-(6-nitro-2-thioxobenzoxazol-3-yl)-2H-1-benzopyran]	30.1	27.0		61.1		23.5
COC(OC)[C@]1(C)Oc2ccc([N+](=O)[O-])cc2[C@H](n2c(=S)oc3ccc(C(F)(F)F)cc32)[C@H]1O [Example 16, (2R,3R,4S)-6-nitro-3,4-dihydro-3-hydroxy-2-dimethoxymethyl-2-methyl-4-(5-trifluoromethyl-2-thioxobenzoxazol-3-yl)-2H-1-benzopyran]		13.3	26.5	79.3		
COC(OC)[C@]1(C)Oc2ccc(N)cc2[C@@H](n2c(=S)oc3ccccc32)[C@@H]1O [Example 20, (2R,3S,4R)-6-amino-3,4-dihydro-3-hydroxy-2-dimethoxymethyl-2-methyl-4-(2-thioxobenzoxazol-3-yl)-2H-1-benzopyran]	3.9	43.3	21.3	42.0		
COC(OC)[C@]1(C)Oc2ccc(NC(=O)C(F)(F)F)cc2[C@H](n2c(=S)oc3ccccc32)[C@H]1O [Example 36, (2R,3R,4S)-6-trifluoroacetylamino-3,4-dihydro-3-hydroxy-2-dimethoxymethyl-2-methyl-4-(2-thioxobenzoxazol-3-yl)-2H-1-benzopyran]		27.3	24.9	48.4		
